Measurements taken from article PMC12586182 (Frontiers in Oncology, 2025).

Assays:
Assay in all cases: Kinase panel profiling at 1 µmol/L (mobility shift assay, Carna)
Type in all cases: biochemical
Conditions in all cases: 1 µmol/L of BTK inhibitor
[1] = molecular target: T1, SPHK2 (Homo sapiens, UniProt Q9NRA0)
T1 construct: purchased Carna Biosciences
T1 sequence (Q9NRA0 1-654): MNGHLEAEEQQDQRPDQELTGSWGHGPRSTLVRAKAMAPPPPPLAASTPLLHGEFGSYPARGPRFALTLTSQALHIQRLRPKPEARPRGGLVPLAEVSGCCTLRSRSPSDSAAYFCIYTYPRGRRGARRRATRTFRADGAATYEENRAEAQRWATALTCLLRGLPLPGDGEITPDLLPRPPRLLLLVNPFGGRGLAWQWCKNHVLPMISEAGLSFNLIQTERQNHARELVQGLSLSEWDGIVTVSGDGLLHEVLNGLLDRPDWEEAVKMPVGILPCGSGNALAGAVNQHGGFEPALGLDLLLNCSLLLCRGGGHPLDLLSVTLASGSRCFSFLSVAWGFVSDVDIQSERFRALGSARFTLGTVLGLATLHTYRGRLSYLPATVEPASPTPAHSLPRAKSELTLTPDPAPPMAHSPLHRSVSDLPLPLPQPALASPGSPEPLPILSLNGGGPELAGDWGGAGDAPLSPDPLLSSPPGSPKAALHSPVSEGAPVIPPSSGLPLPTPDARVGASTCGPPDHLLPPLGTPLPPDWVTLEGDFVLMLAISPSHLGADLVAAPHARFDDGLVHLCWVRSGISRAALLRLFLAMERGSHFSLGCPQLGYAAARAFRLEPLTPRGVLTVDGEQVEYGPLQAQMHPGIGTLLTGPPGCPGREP

[2] = molecular target: T2, CK1γ2 (Homo sapiens, UniProt P78368)
T2 construct: purchased Carna Biosciences
T2 sequence (P78368 whole entry): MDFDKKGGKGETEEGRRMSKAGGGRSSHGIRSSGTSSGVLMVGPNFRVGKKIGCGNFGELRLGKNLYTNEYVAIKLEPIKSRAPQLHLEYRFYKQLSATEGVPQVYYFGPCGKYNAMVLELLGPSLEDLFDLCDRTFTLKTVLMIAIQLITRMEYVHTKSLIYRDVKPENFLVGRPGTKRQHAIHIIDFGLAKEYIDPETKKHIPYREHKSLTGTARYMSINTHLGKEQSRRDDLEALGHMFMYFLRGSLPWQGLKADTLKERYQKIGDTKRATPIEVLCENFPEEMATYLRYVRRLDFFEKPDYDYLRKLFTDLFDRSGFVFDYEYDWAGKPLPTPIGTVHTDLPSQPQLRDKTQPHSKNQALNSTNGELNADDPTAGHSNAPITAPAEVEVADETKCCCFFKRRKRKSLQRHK

[3] = molecular target: T3, Haspin (Homo sapiens, UniProt Q8TF76)
T3 construct: purchased Carna Biosciences
T3 sequence (Q8TF76 1-798): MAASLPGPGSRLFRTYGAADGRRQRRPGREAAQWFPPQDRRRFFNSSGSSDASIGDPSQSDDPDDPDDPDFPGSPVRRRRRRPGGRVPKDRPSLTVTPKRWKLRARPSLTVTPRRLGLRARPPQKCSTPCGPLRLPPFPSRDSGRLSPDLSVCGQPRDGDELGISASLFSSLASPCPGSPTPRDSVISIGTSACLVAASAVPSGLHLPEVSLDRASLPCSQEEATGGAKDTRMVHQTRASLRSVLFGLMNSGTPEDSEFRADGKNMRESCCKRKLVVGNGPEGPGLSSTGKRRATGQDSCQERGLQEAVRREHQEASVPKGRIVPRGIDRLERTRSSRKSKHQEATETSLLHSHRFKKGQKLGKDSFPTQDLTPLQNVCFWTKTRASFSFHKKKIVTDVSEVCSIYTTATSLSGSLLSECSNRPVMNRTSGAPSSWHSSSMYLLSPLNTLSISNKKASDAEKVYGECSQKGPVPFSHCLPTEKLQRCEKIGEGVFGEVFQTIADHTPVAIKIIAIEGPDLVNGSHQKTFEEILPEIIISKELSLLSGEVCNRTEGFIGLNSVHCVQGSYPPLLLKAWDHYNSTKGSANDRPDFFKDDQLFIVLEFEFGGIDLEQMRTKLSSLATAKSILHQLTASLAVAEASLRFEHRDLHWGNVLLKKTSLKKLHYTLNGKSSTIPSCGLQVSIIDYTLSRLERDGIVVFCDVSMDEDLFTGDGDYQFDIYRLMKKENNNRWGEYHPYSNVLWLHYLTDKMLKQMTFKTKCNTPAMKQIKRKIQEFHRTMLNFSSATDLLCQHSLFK

[4] = molecular target: T4, MER (Homo sapiens, UniProt Q12866)
T4 construct: purchased Carna Biosciences
T4 sequence (Q12866 21-999): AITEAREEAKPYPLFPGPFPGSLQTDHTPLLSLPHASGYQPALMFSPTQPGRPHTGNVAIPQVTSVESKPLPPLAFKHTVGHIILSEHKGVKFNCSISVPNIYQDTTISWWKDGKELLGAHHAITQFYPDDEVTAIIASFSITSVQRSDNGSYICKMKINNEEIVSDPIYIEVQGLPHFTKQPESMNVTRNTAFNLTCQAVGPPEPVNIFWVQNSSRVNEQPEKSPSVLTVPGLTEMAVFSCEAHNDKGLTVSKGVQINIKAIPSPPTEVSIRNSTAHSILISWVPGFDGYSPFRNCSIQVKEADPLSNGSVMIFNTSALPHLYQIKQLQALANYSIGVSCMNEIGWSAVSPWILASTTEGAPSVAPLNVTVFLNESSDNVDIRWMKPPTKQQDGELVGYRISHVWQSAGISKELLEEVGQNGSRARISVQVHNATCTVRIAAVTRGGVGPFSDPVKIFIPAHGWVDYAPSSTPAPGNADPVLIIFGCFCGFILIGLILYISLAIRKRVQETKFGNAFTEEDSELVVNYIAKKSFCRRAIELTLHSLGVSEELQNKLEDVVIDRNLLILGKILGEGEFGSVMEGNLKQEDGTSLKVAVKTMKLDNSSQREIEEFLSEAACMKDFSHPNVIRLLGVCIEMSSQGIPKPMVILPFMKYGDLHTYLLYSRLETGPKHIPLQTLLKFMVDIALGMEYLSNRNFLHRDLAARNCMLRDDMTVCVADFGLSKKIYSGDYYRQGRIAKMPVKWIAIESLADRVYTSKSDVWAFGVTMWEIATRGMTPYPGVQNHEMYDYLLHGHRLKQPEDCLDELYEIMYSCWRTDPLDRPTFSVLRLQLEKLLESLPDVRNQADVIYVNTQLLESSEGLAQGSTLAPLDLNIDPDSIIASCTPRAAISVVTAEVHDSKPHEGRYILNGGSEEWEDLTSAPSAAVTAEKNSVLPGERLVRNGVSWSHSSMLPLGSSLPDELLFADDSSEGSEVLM

[5] = molecular target: T5, TYK2 (Homo sapiens, UniProt P29597)
T5 construct: purchased Carna Biosciences
T5 sequence (P29597 whole entry): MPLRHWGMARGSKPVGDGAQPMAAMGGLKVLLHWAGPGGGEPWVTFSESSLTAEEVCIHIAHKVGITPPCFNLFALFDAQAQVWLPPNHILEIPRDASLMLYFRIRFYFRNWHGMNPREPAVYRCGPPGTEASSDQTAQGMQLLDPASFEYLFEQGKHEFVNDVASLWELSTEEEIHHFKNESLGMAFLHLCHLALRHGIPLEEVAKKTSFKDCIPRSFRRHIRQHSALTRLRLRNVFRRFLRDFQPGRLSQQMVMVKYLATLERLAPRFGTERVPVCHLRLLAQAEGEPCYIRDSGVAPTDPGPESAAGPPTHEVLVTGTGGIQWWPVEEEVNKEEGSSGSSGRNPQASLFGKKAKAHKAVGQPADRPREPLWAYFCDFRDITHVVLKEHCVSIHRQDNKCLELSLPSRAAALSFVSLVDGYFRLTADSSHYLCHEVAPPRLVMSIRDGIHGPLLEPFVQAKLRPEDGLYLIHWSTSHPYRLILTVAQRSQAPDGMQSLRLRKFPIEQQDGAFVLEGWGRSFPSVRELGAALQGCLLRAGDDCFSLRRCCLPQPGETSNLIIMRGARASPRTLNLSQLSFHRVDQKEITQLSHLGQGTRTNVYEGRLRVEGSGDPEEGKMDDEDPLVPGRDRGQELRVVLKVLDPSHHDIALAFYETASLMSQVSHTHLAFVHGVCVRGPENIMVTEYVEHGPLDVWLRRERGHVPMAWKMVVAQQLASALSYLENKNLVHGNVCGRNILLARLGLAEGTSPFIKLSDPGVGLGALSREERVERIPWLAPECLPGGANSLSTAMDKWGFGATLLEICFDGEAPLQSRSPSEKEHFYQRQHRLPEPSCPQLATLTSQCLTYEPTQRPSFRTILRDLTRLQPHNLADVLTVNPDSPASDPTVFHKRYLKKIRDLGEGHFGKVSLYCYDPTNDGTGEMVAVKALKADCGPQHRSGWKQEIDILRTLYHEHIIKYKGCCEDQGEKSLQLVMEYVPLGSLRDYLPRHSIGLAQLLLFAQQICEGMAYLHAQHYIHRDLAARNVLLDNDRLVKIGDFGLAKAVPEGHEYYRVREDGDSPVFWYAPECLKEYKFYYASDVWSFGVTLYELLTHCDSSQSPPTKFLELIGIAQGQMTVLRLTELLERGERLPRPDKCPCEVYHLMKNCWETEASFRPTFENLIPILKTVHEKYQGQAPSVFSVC

[6] = molecular target: T6, Erk5 (Homo sapiens, UniProt Q13164)
T6 construct: purchased Carna Biosciences
T6 sequence (Q13164 whole entry): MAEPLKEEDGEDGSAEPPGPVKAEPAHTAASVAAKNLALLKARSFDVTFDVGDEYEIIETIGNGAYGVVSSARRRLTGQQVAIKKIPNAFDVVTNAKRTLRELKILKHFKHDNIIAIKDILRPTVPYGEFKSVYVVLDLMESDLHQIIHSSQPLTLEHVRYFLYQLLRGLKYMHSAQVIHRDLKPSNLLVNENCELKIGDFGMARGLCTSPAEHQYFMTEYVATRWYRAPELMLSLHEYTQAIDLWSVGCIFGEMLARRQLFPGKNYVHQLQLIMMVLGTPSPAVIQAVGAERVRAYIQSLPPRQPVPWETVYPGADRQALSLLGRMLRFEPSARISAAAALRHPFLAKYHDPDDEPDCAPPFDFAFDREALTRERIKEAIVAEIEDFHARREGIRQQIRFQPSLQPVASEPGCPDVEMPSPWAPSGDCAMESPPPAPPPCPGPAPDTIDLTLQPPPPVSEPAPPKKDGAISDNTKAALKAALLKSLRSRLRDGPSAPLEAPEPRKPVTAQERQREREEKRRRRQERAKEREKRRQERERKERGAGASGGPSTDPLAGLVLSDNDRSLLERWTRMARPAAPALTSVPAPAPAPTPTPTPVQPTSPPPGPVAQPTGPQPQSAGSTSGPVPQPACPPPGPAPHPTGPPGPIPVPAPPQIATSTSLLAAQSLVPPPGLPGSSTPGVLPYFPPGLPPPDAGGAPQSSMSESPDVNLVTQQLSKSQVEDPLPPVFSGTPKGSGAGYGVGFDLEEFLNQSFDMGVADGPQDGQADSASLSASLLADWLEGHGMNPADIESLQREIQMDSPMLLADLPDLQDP

| SMILES | Percentage inhibition of kinase enzyme activity [1] [%] | Percentage inhibition of kinase enzyme activity [2] [%] | Percentage inhibition of kinase enzyme activity [3] [%] | Percentage inhibition of kinase enzyme activity [4] [%] | Percentage inhibition of kinase enzyme activity [5] [%] | Percentage inhibition of kinase enzyme activity [6] [%] |
| --- | --- | --- | --- | --- | --- | --- |
| CC#CC(=O)N1CCC[C@H]1c1nc(-c2ccc(C(=O)Nc3ccccn3)cc2)c2c(N)nccn12 [acalabrutinib] | 6.90 | -7.07 | 5.31 | -3.37 | 12.80 | -2.12 |
| C=CC(=O)N1CCC[C@@H](n2nc(-c3ccc(Oc4ccccc4)cc3)c3c(N)ncnc32)C1 [ibrutinib] | 9.66 | 1.01 | 2.53 | – | 6.93 | 3.89 |
| O=C(c1ccc(Oc2ccccc2)cc1Cl)c1c[nH]c2ncnc(N[C@@H]3CC[C@@H](CO)OC3)c12 [nemtabrutinib] | 1.97 | -5.17 | -1.40 | 29.53 | 10.79 | 15.76 |
| COc1ccc(F)cc1C(=O)NCc1ccc(-c2nn([C@@H](C)C(F)(F)F)c(N)c2C(N)=O)cc1 [pirtobrutinib] | -12.42 | 1.27 | -3.18 | -2.75 | -2.78 | 0.51 |
| C=CC(=O)N1CCC([C@@H]2CCNc3c(C(N)=O)c(-c4ccc(Oc5ccccc5)cc4)nn32)CC1 [zanubrutinib] | – | – | – | -2.35 | – | – |
